Assay results from patent US20240199623A1 (ILDONG PHARMACEUTICAL CO., LTD., priority 2020, published 2024).
Converted amounts (≈) assume the structure as drawn.

Assays:
human wild type-CFTR [1] = target: T1, human wild type-CFTR (Homo sapiens, UniProt P13569); assay: Cell-based YFP assay; set-up: expressed in transfected cells; host or cells: CHO-K1 (Chinese hamster ovary); settings: CHO-K1 cells expressing human wild type-CFTR and YFP-H148Q/I152L; forskolin 20 μM = 100% activity; read-out: Cell-based YFP Assay (EC50) Concentration Range
T1 sequence (P13569 whole entry): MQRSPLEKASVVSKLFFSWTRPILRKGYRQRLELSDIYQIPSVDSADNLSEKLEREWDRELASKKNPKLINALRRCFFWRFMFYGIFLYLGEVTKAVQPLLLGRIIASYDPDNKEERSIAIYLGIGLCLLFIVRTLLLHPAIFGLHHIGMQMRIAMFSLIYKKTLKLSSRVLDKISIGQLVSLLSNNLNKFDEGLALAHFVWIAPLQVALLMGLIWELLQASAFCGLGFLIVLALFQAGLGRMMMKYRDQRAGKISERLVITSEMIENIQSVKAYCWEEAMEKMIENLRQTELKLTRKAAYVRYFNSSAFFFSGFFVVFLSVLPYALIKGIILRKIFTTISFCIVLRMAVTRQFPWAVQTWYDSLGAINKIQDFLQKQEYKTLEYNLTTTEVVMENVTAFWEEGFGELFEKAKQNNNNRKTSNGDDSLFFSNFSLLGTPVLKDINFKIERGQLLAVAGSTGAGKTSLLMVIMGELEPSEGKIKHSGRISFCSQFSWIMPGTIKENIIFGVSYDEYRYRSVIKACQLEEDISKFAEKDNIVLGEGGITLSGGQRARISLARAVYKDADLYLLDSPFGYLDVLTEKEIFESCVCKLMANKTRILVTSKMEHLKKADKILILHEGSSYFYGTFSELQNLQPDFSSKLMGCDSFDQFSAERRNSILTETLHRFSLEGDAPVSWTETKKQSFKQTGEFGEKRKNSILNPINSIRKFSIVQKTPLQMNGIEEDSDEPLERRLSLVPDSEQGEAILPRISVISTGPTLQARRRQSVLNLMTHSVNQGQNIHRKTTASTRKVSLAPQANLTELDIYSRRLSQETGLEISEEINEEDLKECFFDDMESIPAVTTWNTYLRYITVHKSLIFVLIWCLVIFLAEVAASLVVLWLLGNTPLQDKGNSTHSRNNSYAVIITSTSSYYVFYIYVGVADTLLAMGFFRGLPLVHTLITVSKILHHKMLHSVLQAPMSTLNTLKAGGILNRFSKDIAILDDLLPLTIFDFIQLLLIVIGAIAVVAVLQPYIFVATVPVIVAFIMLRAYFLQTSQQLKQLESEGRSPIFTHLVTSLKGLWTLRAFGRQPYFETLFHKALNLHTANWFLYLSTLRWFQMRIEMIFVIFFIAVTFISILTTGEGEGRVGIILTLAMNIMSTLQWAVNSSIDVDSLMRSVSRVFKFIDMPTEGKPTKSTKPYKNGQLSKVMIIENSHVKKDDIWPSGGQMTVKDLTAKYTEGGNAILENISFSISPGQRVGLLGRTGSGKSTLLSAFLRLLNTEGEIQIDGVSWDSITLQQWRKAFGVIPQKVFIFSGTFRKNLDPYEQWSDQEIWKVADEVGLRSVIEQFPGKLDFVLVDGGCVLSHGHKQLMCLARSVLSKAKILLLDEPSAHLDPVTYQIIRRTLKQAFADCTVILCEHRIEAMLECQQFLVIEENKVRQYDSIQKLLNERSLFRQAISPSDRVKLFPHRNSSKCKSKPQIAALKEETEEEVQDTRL
Method in brief: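 I⁻-driven YFP fluorescence quenching at 37 °C: 2 s baseline, addition of 140 mM iodide solution, then 14 s of readings at 0.4 s intervals. Cells were CHO-K1 expressing human wild-type CFTR plus YFP-H148Q/I152L. EC50 derived from averaged triplicates.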

human wild type-CFTR [2] = target: T1, human wild type-CFTR; assay: Short-circuit current measurement; type: cell-based; set-up: expressed in transfected cells; settings: FRT cells expressing human wild type-CFTR; Forskolin 20 μM signal used as 100% activity; read-out: Short-circuit current measurement (EC50) Concentration range
Description: Forskolin (Tocris cat. #1099), CFTRinh-172 (Tocris cat. #3430), amphotericin B (Tocris cat. #6930), dimethyl sulfoxide (Sigma cat. #D4540), EVC4000 Multi-Channel V/I Clamp (World Precision Instruments, Sarasota, FL), PowerLab 4/35 (AD Instruments, Castle Hill, Australia), Labchart Pro 7, GraphPad Prism 5 (GraphPad Software, Inc.). Fisher rat thyroid (FRT) cells expressing human wild type-CFTR were provided by Dr. Alan Verkman (University of California, San Francisco) and grown in DMEM/F12 medium (1:1) supplemented with 10% FBS, 2 mM glutamine, 100 units/ml penicillin and 100 μg/ml streptomycin. Snapwell inserts containing CF TR-expressing FRT cells were mounted in Ussing chambers (Physiologic Instruments, San Diego, CA). […] Forskolin, test compounds, and CFTRinh-172 were added to the apical and basolateral bath solution. Apical membrane current and short-circuit current were measured with an EVC4000 Multi-Channel V/I Clamp (World Precision Instruments, Sarasota, FL) and recorded using PowerLab 4/35 (AD Instruments, Castle Hill, Australia). Data were collected and analyzed with ADInstruments acquisition software Labchart Pro 7 software. The sampling rate was 4 Hz.

[3] = Phosphate-buffered saline (PBS) solubility of compounds; type: physicochemical; settings: aqueous buffer, thermodynamic from solid, PBS pH 7.5, 0.5 mg/mL, vortexed 90 min, filtered, LC-MS/MS, read-out: Solubility Range
Protocol: PBS solutions (pH 7.5) were prepared according to the following compositions and stored at 4° C. Test compounds were dissolved in PBS (pH 7.5) at 0.5 mg/mL and vortexed for 90 min. The PBS solution was sequentially filtered through a 0.45, 1.2, […] syringe filter. Concentration of test compounds were determined using LC-MS/MS with appropriate dilution of the samples.

SMILES | EC50 (human wild type-CFTR [1]) [nM] | EC50 (human wild type-CFTR [2]) [nM] | solubility at 90 min [3] [µg/mL]
COc1ccc(-c2ccnc3cc(C(=O)Nc4ccc(OC(=O)[C@@H](NC(=O)OC(C)(C)C)C(C)C)cc4)nn23)cc1OC [Compound 200, 4-(7-(3,4-dimethoxyphenyl)pyrazolo[1,5-a]pyrimidine-2-carboxamido)phenyl(tert-butoxycarbonyl)-L-valinate] | < 200 | < 200 | –
CCOC(=O)N1CCN(C(=O)c2cc3nccc(-c4ccc(OC)c(OC)c4)n3n2)CC1 [Compound 86, ethyl 4-(7-(3,4-dimethoxyphenyl)pyrazolo[1,5-a]pyrimidine-2-carbonyl) piperazine-1-carboxylate] | 200 to 2000 | ≥ 2000 | –
COc1ccc(-c2ccnc3cc(C(=O)Nc4ccc(C(=O)NCCN5CCOCC5)cc4)nn23)cc1OC [Compound 139, 7-(3,4-dimethoxyphenyl)-N-(4-((2-morpholinoethyl)carbamoyl)phenyl)pyrazolo[1,5-a]pyrimidine-2-carboxamide] | < 200 | – | < 0.1
CCOc1ccc(NC(=O)Nc2cc3nccc(-c4ccc(OC)c(OC)c4)n3n2)cc1 [Compound 109, 1-(7-(3,4-dimethoxyphenyl)pyrazolo[1,5-a]pyrimidin-2-yl)-3-(4-ethoxyphenyl)urea] | 200 to 2000 | – | < 0.1
COc1ccc(-c2ccnc3cc(C(=O)Nc4ccc(C(=O)O)cn4)nn23)cc1OC [Compound 78, 6-(7-(3,4-dimethoxyphenyl)pyrazolo[1,5-a]pyrimidine-2-carboxamido) nicotinic acid] | 200 to 2000 | 200 to 2000 | –
COc1ccc(-c2ccnc3cc(C(=O)Nc4ccc(NC(=O)CN)cc4)nn23)cc1OC [Compound 283, N-(4-(2-aminoacetamido)phenyl)-7-(3,4-dimethoxyphenyl)pyrazolo [1,5-a]pyrimidine-2-carboxamide] | 200 to 2000 | – | < 0.1
COc1ccc(-c2ccnc3cc(C(=O)NC4CCN(C(=O)OC(C)(C)C)CC4)nn23)cc1OC [Compound 63, tert-butyl 4-(7-(3,4-dimethoxyphenyl)pyrazolo[1,5-a]pyrimidine-2-carboxamido)piperidine-1-carboxylate] | 200 to 2000 | – | 0.1 to 10 (≈ 0.208 to 20.8 µM)
COc1ccc(-c2ccnc3cc(C(=O)Nc4ccc(C(=O)N5CCN(C(=O)OC(C)(C)C)CC5)cc4)nn23)cc1OC [Compound 51, tert-butyl 4-(4-(7-(3,4-dimethoxyphenyl)pyrazolo [1,5-a]pyrimidine-2-carboxamido)benzoyl) piperazine-1-carboxylate] | < 200 | – | < 0.1
COC(=O)c1ccc(NC(=O)c2cc3nccc(-c4ccc(OC)c(Cl)c4)n3n2)cc1 [Compound 39, methyl 4-(7-(3-chloro-4-methoxyphenyl)pyrazolo [1,5-a]pyrimidine-2-carboxamido)benzoate] | 200 to 2000 | – | < 0.1
COc1ccc(-c2ccnc3cc(C(=O)Nc4cccc(C(=O)N5CCN(C(=O)OC(C)(C)C)CC5)c4)nn23)cc1OC [Compound 56, tert-butyl 4-(3-(7-(3,4-dimethoxyphenyl)pyrazolo [1,5-a]pyrimidine-2-carboxamido)benzoyl) piperazine-1-carboxylate] | < 200 | – | < 0.1
COC(=O)c1ccc(NC(=O)c2cc3nccc(-c4ccc(OC)c(OC)c4)n3n2)cc1O [Compound 167, methyl 4-(7-(3,4-dimethoxyphenyl)pyrazolo [1,5-a]pyrimidine-2-carboxamido)-2-hydroxybenzoate] | < 200 | – | < 0.1
COc1ccc(-c2ccnc3cc(C(=O)NC45CC(C(=O)N6CCN(C(=O)OC(C)(C)C)CC6)(C4)C5)nn23)cc1OC [Compound 92, tert-butyl 4-(3-(7-(3,4-dimethoxyphenyl)pyrazolo [1,5-a]pyrimidine-2-carboxamido)bicyclo [1.1.1]pentane-1-carbonyl)piperazine-1-carboxylate] | < 200 | – | < 0.1
COC(=O)[C@H](CC(C)C)NC(=O)c1ccc(NC(=O)c2cc3nccc(-c4ccc(OC)c(OC)c4)n3n2)cc1 [Compound 57, methyl (4-(7-(3,4-dimethoxyphenyl)pyrazolo [1,5-a]pyrimidine-2-carboxamido)benzoyl)-L-leucinate] | < 200 | – | < 0.1
COc1ccc(-c2ccnc3cc(C(=O)N4CCN(C(=O)OC(C)(C)C)CC4)nn23)cc1OC [Compound 62, tert-butyl 4-(7-(3,4-dimethoxyphenyl)pyrazolo[1,5-a]pyrimidine-2-carbonyl)piperazine-1-carboxylate] | 200 to 2000 | – | 0.1 to 10 (≈ 0.214 to 21.4 µM)
COc1ccc(-c2ccnc3cc(C(=O)Nc4cccnc4)nn23)cc1OC [Compound 18, 7-(3,4-dimethoxyphenyl)-N-(pyridin-3-yl) pyrazolo[1,5-a]pyrimidine-2-carboxamide] | 200 to 2000 | – | < 0.1
COc1ccc(-c2ccnc3cc(C(=O)N[C@H]4CC[C@H](C(=O)N5CCOCC5)CC4)nn23)cc1OC [Compound 75, 7-(3,4-dimethoxyphenyl)-N-((1R,4R)-4-(morpholine-4-carbonyl)cyclohexyl) pyrazolo[1,5-a]pyrimidine-2-carboxamide] | ≥ 2000 | – | > 10
COC(=O)[C@@H]1CCCN1C(=O)c1ccc(NC(=O)c2cc3nccc(-c4ccc(OC)c(OC)c4)n3n2)cc1 [Compound 47, methyl (4-(7-(3,4-dimethoxyphenyl)pyrazolo [1,5-a]pyrimidine-2-carboxamido)benzoyl)-L-prolinate] | < 200 | – | < 0.1
COC(=O)[C@H](Cc1ccccc1)NC(=O)c1ccc(NC(=O)c2cc3nccc(-c4ccc(OC)c(OC)c4)n3n2)cc1 [Compound 46, methyl (4-(7-(3,4-dimethoxyphenyl)pyrazolo [1,5-a]pyrimidine-2-carboxamido)benzoyl)-L-phenylalaninate] | < 200 | – | < 0.1
COc1ccc(-c2ccnc3cc(C(=O)Nc4ccc(C(=O)NCCN5CCN(C)CC5)cc4)nn23)cc1OC [Compound 178, 7-(3,4-dimethoxyphenyl)-N-(4-((2-(4-methylpiperazin-1-yl)ethyl)carbamoyl)phenyl)pyrazolo[1,5-a]pyrimidine-2-carboxamide] | 200 to 2000 | – | > 10
COc1ccc(-c2ccnc3cc(C(=O)Nc4ccc(C(=O)N5CCN(C)CC5)c(Cl)c4)nn23)cc1OC [Compound 161, N-(3-chloro-4-(4-methylpiperazine-1-carbonyl)phenyl)-7-(3,4-dimethoxyphenyl)pyrazolo [1,5-a]pyrimidine-2-carboxamide] | 200 to 2000 | – | 0.1 to 10 (≈ 0.187 to 18.7 µM)
COc1ccc(-c2ccnc3cc(C(=O)Nc4ccccc4)nn23)cc1OC [Compound 1, 7-(3,4-dimethoxyphenyl)-N-phenylpyrazolo[1,5-a] pyrimidine-2-carboxamide] | < 200 | – | < 0.1
COc1ccc(-c2ccnc3cc(C(=O)Nc4ccc(C(=O)N5CCOCC5)cc4F)nn23)cc1OC [Compound 157, 7-(3,4-dimethoxyphenyl)-N-(2-fluoro-4-(morpholine-4-carbonyl)phenyl)pyrazolo[1,5-a]pyrimidine-2-carboxamide] | < 200 | – | < 0.1
COC(=O)c1ccc(NC(=O)c2cc3nccc(-c4ccc(OC)c(OC)c4)n3n2)c(C)c1 [Compound 125, methyl 4-(7-(3,4-dimethoxyphenyl)pyrazolo [1,5-a]pyrimidine-2-carboxamido)-3-methylbenzoate] | < 200 | – | < 0.1
COc1ccc(-c2ccnc3cc(C(=O)Nc4ccc(NC(=O)[C@@H](NC(=O)OC(C)(C)C)C(C)C)cc4)nn23)cc1OC [Compound 282, tert-butyl (S)-(1-((4-(7-(3,4-dimethoxyphenyl)pyrazolo [1,5-a]pyrimidine-2-carboxamido)phenyl)amino)-3-methyl-1-oxobutan-2-yl)carbamate] | < 200 | – | < 0.1
COc1ccc(-c2ccnc3cc(C(=O)Nc4ccc(NC(=O)[C@H](C)N)cc4)nn23)cc1OC [Compound 284, (S)-N-(4-(2-amino-propanamido)phenyl)-7-(3,4-dimethoxyphenyl)pyrazolo [1,5-a]pyrimidine-2-carboxamide] | < 200 | – | 0.1 to 10 (≈ 0.217 to 21.7 µM)
